In patent US8338422B2, “Indolin-2-ones and aza-indolin-2-ones” (Janssen Pharmaceutica NV, priority 2007, dated 2012):

Key:
PLK4 (h) = PLK4 (h) (Homo sapiens, UniProt O00444); assay: PLK-4 human kinase assay (SPA); type: biochemical; settings: for IC50: read-out: PLK4 pIC50 (converted)
How it was run: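 Radiometric readout: 33P-labelled peptide captured on streptavidin SPA beads after EDTA stop, imaged by Leadseeker. Reaction ran 60 min at room temperature in Hepes pH 8.0 buffer. It contained 1 μM ATP with 2 nM [γ-33P]ATP, 10 μM biotinylated peptide and PLK4 (h) at 19 μg/ml.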

AuroraB (h) = AuroraB (h) (Homo sapiens, UniProt Q96GD4); assay: Aurora-B human kinase assay (SPA); type: biochemical; settings: for IC50: read-out: AuroraB pIC50 (converted)
How it was run: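 Scintillation proximity assay: AuroraB (h) at 0.5 μg/ml with 3 μM biotinylated peptide, 0.5 μM ATP and 2.2 nM [γ-33P]ATP in 60 mM Hepes pH 7.5, 3 mM MgCl2, 3 mM MnCl2, 2 mM DTT. 60 min at room temperature, EDTA stop, streptavidin PVT beads read on Leadseeker.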

GSK3β (h) = GSK3β (h) (Homo sapiens, UniProt P49841); assay: GSK-3β human kinase assay (SPA); type: biochemical; settings: for IC50: read-out: GSK3B pIC50 (converted)
How it was run: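 Radiometric SPA read-out: after EDTA stop, biotinylated 33P-labelled peptide bound streptavidin PVT beads and was imaged on Leadseeker. Reaction: 60 min, room temperature, GSK3β (h) at 1 μg/ml, 1 μM substrate peptide, 1 μM ATP with 2 nM [γ-33P]ATP, Tris pH 7.4/MgCl2/DTT buffer.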

CDK1/CyclinB (h) = CDK1/CyclinB (h) (Homo sapiens, UniProt P06493); assay: CDK1/CyclinB human kinase assay (FRET); type: biochemical; settings: for IC50: read-out: CDK1 pIC50 (converted)
How it was run: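 Z'-LYTE FRET format: 0.2 μg/ml enzyme with 2 μM Ser/Thr peptide 12 and 10 μM ATP in 50 mM Hepes pH 7.5, 10 mM MgCl2, 1 mM EGTA, 0.01% Brij-35, 60 min at room temperature. Protease development 60 min; coumarin/fluorescein emission ratio (460/538 nm, excitation 390 nm) reports phosphorylation.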

A2780 = assay: Cellular proliferation assay (Alamar blue), A2780; type: cell-based; settings: A2780 cells, 72 hours with compound, 10% FCS; for IC50: Homo sapiens, A2780, 72 h, read-out: pIC50 A2780 (converted)
How it was run: (§1)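 Proliferation was assessed over 72 h of compound treatment, following 24 h of seeding without compound, under 10% FCS, 37° C. and 5% CO2. Fluorescent resazurin product was measured and compared with control cells.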

SKOV3 = assay: Cellular proliferation assay (Alamar blue), SKOV3; type: cell-based; settings: 72 hours with compound, 10% FCS; for pIC50 SKOV3: SKOV3 cells; for IC50: Homo sapiens, SK-OV-3, SKOV3 cells, read-out: pIC50 SKOV3 (converted)
Protocol: […] functional properties of these compounds was tested in cellular proliferation assays on a panel of different cell lines in the presence of 10% FCS serum (37° C. and 5% (v/v) CO2). In a first step these cells were seeded and incubated for 24 hours in the absence of compound. In the second step the cells were incubated for 72 hours with the compounds to be tested for 72 hours. The viable cell number was finally assessed in a standard Alamar blue cell viability assay.
The viable cell number was assessed by incubation for either 4 h (HCT-116, H1299, H460) 6 h (SKOV3, HT29, U87-MG, Colo205) or 24 h (A2780, PC3, MDA-MB-231, A549, MCF-7) with Alamar blue (Resazurin 9 μg/ml, K-Ferrocyanide 90 μM K-Ferricyanide 90 μM) and the converted fluorescent product was quantified on a fluorescent plate readed (544 nm/590 nm). Effect of the compounds is calculated as of on control cells.

HCT-116 = assay: Cellular proliferation assay (Alamar blue), HCT-116; type: cell-based; settings: HCT-116 cells, 72 hours with compound, 10% FCS; for IC50: Homo sapiens, HCT-116, 72 h, read-out: pIC50 HCT-116 (converted)
How it was run: as §1

H1299 = assay: Cellular proliferation assay (Alamar blue), H1299; type: cell-based; settings: H1299 cells, 72 hours with compound, 10% FCS; for IC50: Homo sapiens, NCI-H1299, 72 h, read-out: pIC50 H1299 (converted)
How it was run: as §1

MDA/MB231 = assay: Cellular proliferation assay (Alamar blue), MDA/MB231; type: cell-based; settings: MDA/MB231 cells, 72 hours with compound, 10% FCS; for IC50: Homo sapiens, MDA-MB-231, 72 h, read-out: pIC50 MDA/MB231 (converted)
How it was run: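 Alamar blue fluorescence (544/590 nm) read-out of viable cell number after 72 h compound exposure, expressed versus control cells. Medium 10% FCS, 37° C., 5% CO2; 24 h pre-seeding without compound. Dye contact time: 24 h for MDA-MB-231, 4 h for H460.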

U87MG = assay: Cellular proliferation assay (Alamar blue), U87MG; type: cell-based; settings: U87MG cells, 72 hours with compound, 10% FCS; for IC50: Homo sapiens, U-87 MG, 72 h, read-out: pIC50 U87MG (converted)
How it was run: as §1

PC-3 = assay: Cellular proliferation assay (Alamar blue), PC-3; type: cell-based; settings: PC-3 cells, 72 hours with compound, 10% FCS; for IC50: Homo sapiens, PC-3, 72 h, read-out: pIC50 PC-3 (converted)
How it was run: as §1

CDK1/CyclinB (h), sequence (P06493 whole entry): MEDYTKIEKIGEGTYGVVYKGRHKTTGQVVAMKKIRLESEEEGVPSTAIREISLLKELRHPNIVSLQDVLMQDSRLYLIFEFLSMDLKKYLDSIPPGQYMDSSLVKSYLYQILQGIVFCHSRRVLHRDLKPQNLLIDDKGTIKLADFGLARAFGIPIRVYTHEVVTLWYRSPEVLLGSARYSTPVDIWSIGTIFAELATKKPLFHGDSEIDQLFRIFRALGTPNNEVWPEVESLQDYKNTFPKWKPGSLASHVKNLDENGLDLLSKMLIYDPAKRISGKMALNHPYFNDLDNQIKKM
CDK1/CyclinB (h), sequence (P14635 whole entry partner): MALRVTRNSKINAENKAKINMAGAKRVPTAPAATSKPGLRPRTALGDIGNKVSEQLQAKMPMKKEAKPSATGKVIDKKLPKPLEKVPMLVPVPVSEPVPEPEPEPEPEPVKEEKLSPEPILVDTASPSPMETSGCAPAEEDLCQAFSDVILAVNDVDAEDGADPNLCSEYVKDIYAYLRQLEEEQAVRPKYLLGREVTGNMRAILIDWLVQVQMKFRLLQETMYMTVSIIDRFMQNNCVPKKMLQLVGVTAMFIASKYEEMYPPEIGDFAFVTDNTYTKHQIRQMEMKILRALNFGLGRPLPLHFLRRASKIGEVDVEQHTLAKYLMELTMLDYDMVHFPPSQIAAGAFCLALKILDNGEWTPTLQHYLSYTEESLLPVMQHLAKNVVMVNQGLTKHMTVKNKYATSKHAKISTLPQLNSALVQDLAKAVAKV
GSK3β (h), sequence (P49841 whole entry): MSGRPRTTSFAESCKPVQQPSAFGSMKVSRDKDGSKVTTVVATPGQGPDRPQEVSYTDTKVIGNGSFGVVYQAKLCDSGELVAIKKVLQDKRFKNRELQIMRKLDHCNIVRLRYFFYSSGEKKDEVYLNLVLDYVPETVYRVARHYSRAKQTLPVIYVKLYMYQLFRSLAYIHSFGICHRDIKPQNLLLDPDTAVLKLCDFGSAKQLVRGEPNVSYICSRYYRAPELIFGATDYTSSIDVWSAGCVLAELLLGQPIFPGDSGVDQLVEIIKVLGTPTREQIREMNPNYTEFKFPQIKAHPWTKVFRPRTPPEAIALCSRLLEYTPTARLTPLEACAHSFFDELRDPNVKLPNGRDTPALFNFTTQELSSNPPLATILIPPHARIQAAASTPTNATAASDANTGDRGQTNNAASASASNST
PLK4 (h), sequence (O00444 whole entry): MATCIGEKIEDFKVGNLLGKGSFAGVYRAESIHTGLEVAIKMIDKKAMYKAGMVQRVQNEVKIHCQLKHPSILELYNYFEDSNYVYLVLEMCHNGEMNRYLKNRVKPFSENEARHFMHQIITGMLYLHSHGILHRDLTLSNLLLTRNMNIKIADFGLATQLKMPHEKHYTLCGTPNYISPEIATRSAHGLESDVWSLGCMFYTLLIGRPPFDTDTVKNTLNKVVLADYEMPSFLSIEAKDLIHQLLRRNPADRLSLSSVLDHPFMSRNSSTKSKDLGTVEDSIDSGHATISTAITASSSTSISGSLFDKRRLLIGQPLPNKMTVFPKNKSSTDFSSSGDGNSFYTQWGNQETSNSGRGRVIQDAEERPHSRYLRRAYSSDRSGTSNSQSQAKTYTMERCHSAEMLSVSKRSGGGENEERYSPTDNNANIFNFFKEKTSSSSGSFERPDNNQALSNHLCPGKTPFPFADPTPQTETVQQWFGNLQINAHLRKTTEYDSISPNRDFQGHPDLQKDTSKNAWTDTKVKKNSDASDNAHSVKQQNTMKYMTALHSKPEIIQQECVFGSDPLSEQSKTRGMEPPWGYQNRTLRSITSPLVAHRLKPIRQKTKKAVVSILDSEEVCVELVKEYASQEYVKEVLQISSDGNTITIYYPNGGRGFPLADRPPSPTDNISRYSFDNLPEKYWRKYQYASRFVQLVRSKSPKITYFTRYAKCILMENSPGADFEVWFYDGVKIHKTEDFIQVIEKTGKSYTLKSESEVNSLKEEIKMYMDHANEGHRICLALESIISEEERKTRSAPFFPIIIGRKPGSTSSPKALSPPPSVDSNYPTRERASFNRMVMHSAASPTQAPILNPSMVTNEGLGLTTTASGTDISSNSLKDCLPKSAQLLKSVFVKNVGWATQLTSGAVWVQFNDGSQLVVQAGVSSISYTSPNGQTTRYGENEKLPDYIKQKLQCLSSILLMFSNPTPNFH
AuroraB (h), sequence (Q96GD4 whole entry): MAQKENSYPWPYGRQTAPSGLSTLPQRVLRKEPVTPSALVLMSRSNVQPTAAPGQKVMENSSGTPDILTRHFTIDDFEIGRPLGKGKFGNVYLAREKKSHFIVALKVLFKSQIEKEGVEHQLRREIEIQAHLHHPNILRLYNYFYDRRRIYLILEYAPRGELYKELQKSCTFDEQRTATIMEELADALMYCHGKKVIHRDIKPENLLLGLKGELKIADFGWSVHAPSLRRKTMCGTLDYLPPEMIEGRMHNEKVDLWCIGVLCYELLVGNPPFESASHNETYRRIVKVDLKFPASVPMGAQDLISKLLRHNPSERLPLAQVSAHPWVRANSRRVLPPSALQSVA

Row | SMILES | IC50 (PLK4 (h)) | IC50 (AuroraB (h)) | IC50 (GSK3β (h)) | IC50 (CDK1/CyclinB (h)) | IC50 (A2780) | IC50 (SKOV3) | IC50 (HCT-116) | IC50 (H1299) | IC50 (MDA/MB231) | IC50 (U87MG) | IC50 (PC-3) | also measured
1 | CN1CCCNc2ncnc3c2C(=CNc2ccc(N4CCOCC4)c(c2)OCCCCC1=O)C(=O)N3 (mixture of isomers) [Compound 121] |  |  |  |  |  |  |  |  |  |  |  | PLK4 pIC50 (PLK4 (h)): 7.22; AuroraB pIC50 (AuroraB (h)): 6.15; GSK3B pIC50 (GSK3β (h)): 7.45; CDK1 pIC50 (CDK1/CyclinB (h)): 6.24; pIC50 A2780 (A2780): 6.48; pIC50 SKOV3 (SKOV3): 5.78; pIC50 HCT-116 (HCT-116): 5.99; pIC50 H1299 (H1299): 6.32; pIC50 MDA/MB231 (MDA/MB231): 5.20; pIC50 U87MG (U87MG): 6.66; pIC50 PC-3 (PC-3): 5.19
2 | CN1CCN(c2ccc3cc2CN(C)CCCC(=O)N(C)CCNc2ncnc4c2/C(=C/N3)C(=O)N4)CC1 [Compound 116] | 5.89 µM | > 10 µM | 3.09 µM | > 10 µM | 3.72 µM | > 10 µM | 6.46 µM | 9.77 µM | 5.25 µM | 3.24 µM | > 10 µM | 
3 | COc1cc2cc(c1OC)CN(C)CC(=O)N(C)CCNc1ncnc3c1/C(=C/N2)C(=O)N3 [Compound 123] | > 10 µM | > 10 µM | > 10 µM | > 10 µM | > 10 µM | > 10 µM | > 10 µM | > 10 µM | > 10 µM | > 10 µM | > 10 µM | 
4 | COc1cc2cc(c1OC)CN(C)CCCC(=O)N(C)CCNc1ncnc3c1/C(=C/N2)C(=O)N3 [Compound 118] | > 10 µM | > 10 µM | > 10 µM | > 10 µM | > 10 µM | > 10 µM | > 10 µM | > 10 µM | > 10 µM | > 10 µM | > 10 µM | 
5 | CN1CCN(c2ccc3cc2CN(C)CCCCCC(=O)N(C)CCCNc2ncnc4c2C(=CN3)C(=O)N4)CC1 (mixture of isomers) [Compound 117] |  |  |  |  |  |  |  |  |  |  |  | PLK4 pIC50 (PLK4 (h)): 6.5; AuroraB pIC50 (AuroraB (h)): <5; GSK3B pIC50 (GSK3β (h)): 5.58; CDK1 pIC50 (CDK1/CyclinB (h)): <5; pIC50 A2780 (A2780): 5.63; pIC50 SKOV3 (SKOV3): <5; pIC50 H1299 (H1299): 5.15; pIC50 MDA/MB231 (MDA/MB231): 5.06; pIC50 U87MG (U87MG): 5.55; pIC50 PC-3 (PC-3): <5
6 | CN1CCN(c2ccc3cc2CN(C)CCCCC(=O)N(C)CCCNc2ncnc4c2/C(=C/N3)C(=O)N4)CC1 [Compound 122] | 0.851 µM | > 10 µM | 0.575 µM | 4.68 µM | 0.288 µM | 8.32 µM |  | 1.2 µM | 1.95 µM | 0.708 µM | 7.94 µM | 
7 | CN1CCCCNc2ncnc3c2/C(=C/Nc2cccc(c2)OCC1=O)C(=O)N3 [Compound 143] | 3.16 µM | 2.34 µM | 0.363 µM | > 10 µM | > 10 µM |  | > 10 µM | > 10 µM | > 10 µM | > 10 µM | > 10 µM | 
8 | CN1CCCNc2ncnc3c2C(=CNc2ccc(N4CCOCC4)c(c2)OCCCCCC1=O)C(=O)N3 (mixture of isomers) [Compound 120] |  |  |  |  |  |  |  |  |  |  |  | PLK4 pIC50 (PLK4 (h)): 6.67; AuroraB pIC50 (AuroraB (h)): 5.58; GSK3B pIC50 (GSK3β (h)): 6.73; CDK1 pIC50 (CDK1/CyclinB (h)): 5.86; pIC50 A2780 (A2780): 5.95; pIC50 SKOV3 (SKOV3): 5.02; pIC50 HCT-116 (HCT-116): 5.38; pIC50 H1299 (H1299): 5.68; pIC50 MDA/MB231 (MDA/MB231): 5.03; pIC50 U87MG (U87MG): 5.99; pIC50 PC-3 (PC-3): <5
9 | CN1CCNC(=O)CCCOc2cc(ccc2Cl)N/C=C2\C(=O)Nc3ncnc1c32 [Compound 55] | > 10 µM | > 10 µM | > 10 µM | > 10 µM | > 10 µM |  | > 10 µM | > 10 µM | > 10 µM | > 10 µM | > 10 µM | 
10 | COc1cc2cc(c1OC)OCCCC(=O)N(C)CCNc1ncnc3c1/C(=C/N2)C(=O)N3 [Compound 132] | 0.417 µM | > 10 µM | > 10 µM | > 10 µM | > 10 µM |  | 0.912 µM | > 10 µM | > 10 µM | > 10 µM | > 10 µM | 
11 | COc1cc2cc(c1OC)OCCCCC(=O)N(C)CCNc1ncnc3c1C(=CN2)C(=O)N3 (mixture of isomers) [Compound 129] |  |  |  |  |  |  |  |  |  |  |  | PLK4 pIC50 (PLK4 (h)): 5.71; AuroraB pIC50 (AuroraB (h)): 5.26; GSK3B pIC50 (GSK3β (h)): <5; CDK1 pIC50 (CDK1/CyclinB (h)): <5; pIC50 A2780 (A2780): <5; pIC50 HCT-116 (HCT-116): <5; pIC50 H1299 (H1299): 5.65; pIC50 MDA/MB231 (MDA/MB231): <5; pIC50 U87MG (U87MG): 5.42; pIC50 PC-3 (PC-3): <5
12 | CN1CCNC(=O)CCCCCCOc2cc(ccc2Cl)N/C=C2\C(=O)Nc3ncnc1c32 [Compound 49] | 7.41 µM | > 10 µM | > 10 µM | > 10 µM | > 10 µM |  | > 10 µM | > 10 µM | > 10 µM | > 10 µM | > 10 µM | 
13 | COc1ccc2cc1CN(C)CCCCCC(=O)NCCN(C)c1ncnc3c1/C(=C/N2)C(=O)N3 [Compound 48] | > 10 µM | > 10 µM | > 10 µM | > 10 µM | > 10 µM |  | > 10 µM | > 10 µM | > 10 µM | > 10 µM | > 10 µM | 
14 | COc1cc2cc(c1OC)CN(C)CCCCC(=O)N(C)CCNc1ncnc3c1/C(=C/N2)C(=O)N3 [Compound 119] | 7.41 µM | > 10 µM | > 10 µM | 6.31 µM | 2.57 µM | > 10 µM |  | > 10 µM | > 10 µM | > 10 µM | > 10 µM | 
